What follows are molecules tested against Cyclin-dependent kinase 4/cyclin D1 (Homo sapiens) (UniProt P11802+P24385) (assay: Inhibition of CDK4D1 (unknown origin) at 5.5 uM by Caliper Mobility Shift Assay).
Assay type: protein-complex assay
For `CC(=O)Nc1cc(-c2c(-c3ccc(F)cc3)nc(S/C=C\C(=O)O)n2CC2CCCO2)ccn1` (racemic), the inhibition was < 50%.

Each molecule was assayed against T1, Serine/threonine-protein kinase 4 (Homo sapiens) (UniProt Q13043) (assay: Inhibition of STK4 (unknown origin) at 5.5 uM by Caliper Mobility Shift Assay).
T1 sequence (whole entry): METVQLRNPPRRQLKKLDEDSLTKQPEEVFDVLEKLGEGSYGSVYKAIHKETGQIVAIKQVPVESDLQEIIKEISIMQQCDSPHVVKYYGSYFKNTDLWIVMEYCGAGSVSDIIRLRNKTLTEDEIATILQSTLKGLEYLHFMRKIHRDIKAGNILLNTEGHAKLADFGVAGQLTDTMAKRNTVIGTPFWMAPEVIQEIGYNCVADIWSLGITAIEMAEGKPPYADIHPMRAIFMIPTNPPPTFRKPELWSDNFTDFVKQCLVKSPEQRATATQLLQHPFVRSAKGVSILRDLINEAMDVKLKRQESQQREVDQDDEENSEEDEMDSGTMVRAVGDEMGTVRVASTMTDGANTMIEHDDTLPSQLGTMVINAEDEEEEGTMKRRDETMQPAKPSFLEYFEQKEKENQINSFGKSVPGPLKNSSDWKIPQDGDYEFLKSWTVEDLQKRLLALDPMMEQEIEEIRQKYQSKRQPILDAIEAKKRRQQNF
With `CC(=O)Nc1cc(-c2c(-c3ccc(F)cc3)nc(S/C=C\C(=O)O)n2CC2CCCO2)ccn1` (racemic) the inhibition was < 50%.

What follows are molecules tested against ALK tyrosine kinase receptor (Homo sapiens) (UniProt Q9UM73) (assay: Inhibition of ALK (unknown origin) at 5.5 uM by Caliper Mobility Shift Assay).
For `CC(=O)Nc1cc(-c2c(-c3ccc(F)cc3)nc(S/C=C\C(=O)O)n2CC2CCCO2)ccn1` (racemic), the inhibition was < 50%.

Species on record: Homo sapiens
Test: Inhibition of PRKACA(PKA) (unknown origin) at 5.5 uM by Caliper Mobility Shift Assay
`CC(=O)Nc1cc(-c2c(-c3ccc(F)cc3)nc(S/C=C\C(=O)O)n2CC2CCCO2)ccn1` (racemic) was tested, and the inhibition was < 50%.

What follows are molecules tested against Fibroblast growth factor receptor 3 (Homo sapiens) (UniProt P22607) (assay: Inhibition of FGFR3 (unknown origin) at 5.5 uM by Caliper Mobility Shift Assay).
In the case of `CC(=O)Nc1cc(-c2c(-c3ccc(F)cc3)nc(S/C=C\C(=O)O)n2CC2CCCO2)ccn1` (racemic), the inhibition is reported as < 50%.

What follows are molecules tested against Receptor-type tyrosine-protein kinase FLT3 (Homo sapiens) (UniProt P36888) (assay: Inhibition of FLT3 (unknown origin) at 5.5 uM by Caliper Mobility Shift Assay).
Receptor-type tyrosine-protein kinase FLT3 (Homo sapiens), sequence (P36888 whole entry): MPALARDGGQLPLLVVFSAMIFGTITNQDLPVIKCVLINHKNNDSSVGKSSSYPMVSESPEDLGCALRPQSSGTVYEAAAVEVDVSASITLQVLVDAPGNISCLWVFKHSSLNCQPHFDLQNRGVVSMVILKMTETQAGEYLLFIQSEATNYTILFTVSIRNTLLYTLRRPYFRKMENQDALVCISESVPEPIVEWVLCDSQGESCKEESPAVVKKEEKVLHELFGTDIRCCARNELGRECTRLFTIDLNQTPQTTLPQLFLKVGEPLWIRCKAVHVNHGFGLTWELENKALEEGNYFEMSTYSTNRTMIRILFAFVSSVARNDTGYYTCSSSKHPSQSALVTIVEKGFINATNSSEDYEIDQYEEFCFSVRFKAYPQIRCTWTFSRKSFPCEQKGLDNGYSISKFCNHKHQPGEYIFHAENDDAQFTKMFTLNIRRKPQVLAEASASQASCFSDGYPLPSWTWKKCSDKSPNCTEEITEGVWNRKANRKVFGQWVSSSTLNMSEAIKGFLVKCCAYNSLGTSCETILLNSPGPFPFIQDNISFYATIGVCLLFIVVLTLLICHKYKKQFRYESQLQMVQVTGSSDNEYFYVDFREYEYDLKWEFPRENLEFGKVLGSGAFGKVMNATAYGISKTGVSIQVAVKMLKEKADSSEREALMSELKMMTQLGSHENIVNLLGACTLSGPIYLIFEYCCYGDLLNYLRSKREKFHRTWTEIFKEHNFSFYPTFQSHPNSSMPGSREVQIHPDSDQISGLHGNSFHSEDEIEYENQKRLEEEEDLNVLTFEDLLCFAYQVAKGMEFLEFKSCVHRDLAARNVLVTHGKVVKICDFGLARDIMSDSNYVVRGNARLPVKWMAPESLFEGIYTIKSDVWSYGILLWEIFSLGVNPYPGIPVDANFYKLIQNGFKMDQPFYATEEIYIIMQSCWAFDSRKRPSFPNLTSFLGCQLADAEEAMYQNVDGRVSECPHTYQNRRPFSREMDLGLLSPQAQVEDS
In the case of `CC(=O)Nc1cc(-c2c(-c3ccc(F)cc3)nc(S/C=C\C(=O)O)n2CC2CCCO2)ccn1` (racemic), the inhibition is reported as < 50%.

These molecules were tested against Calcium/calmodulin-dependent protein kinase type II subunit beta (Homo sapiens) (UniProt Q13554) (assay: Inhibition of CAMK2 (unknown origin) at 5.5 uM by Caliper Mobility Shift Assay).
Calcium/calmodulin-dependent protein kinase type II subunit beta (Homo sapiens), sequence (Q13554 whole entry): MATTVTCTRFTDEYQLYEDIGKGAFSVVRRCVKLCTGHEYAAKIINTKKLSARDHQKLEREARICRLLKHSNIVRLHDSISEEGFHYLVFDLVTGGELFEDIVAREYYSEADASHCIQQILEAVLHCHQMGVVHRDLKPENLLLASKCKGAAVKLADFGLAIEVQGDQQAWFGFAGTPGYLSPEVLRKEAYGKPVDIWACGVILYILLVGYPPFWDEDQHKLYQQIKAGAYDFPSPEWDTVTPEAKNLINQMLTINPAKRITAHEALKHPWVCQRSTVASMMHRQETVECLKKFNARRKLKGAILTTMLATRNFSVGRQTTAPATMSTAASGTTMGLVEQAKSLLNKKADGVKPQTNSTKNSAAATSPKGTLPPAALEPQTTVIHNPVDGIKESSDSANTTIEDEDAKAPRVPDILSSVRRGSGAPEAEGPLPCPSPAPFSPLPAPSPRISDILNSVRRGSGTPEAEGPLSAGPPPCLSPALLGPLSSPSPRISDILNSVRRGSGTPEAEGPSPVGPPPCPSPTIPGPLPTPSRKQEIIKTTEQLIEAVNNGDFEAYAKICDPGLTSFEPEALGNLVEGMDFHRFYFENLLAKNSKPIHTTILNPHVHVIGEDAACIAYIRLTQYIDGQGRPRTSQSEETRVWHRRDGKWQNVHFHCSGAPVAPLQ
With `CC(=O)Nc1cc(-c2c(-c3ccc(F)cc3)nc(S/C=C\C(=O)O)n2CC2CCCO2)ccn1` (racemic) the inhibition was < 50%.

Each molecule was assayed against Tyrosine-protein kinase Lck (Homo sapiens) (UniProt P06239) (assay: Inhibition of LCK (unknown origin) at 5.5 uM by Caliper Mobility Shift Assay).
Tyrosine-protein kinase Lck (Homo sapiens), sequence (P06239 2-509 limits assumed): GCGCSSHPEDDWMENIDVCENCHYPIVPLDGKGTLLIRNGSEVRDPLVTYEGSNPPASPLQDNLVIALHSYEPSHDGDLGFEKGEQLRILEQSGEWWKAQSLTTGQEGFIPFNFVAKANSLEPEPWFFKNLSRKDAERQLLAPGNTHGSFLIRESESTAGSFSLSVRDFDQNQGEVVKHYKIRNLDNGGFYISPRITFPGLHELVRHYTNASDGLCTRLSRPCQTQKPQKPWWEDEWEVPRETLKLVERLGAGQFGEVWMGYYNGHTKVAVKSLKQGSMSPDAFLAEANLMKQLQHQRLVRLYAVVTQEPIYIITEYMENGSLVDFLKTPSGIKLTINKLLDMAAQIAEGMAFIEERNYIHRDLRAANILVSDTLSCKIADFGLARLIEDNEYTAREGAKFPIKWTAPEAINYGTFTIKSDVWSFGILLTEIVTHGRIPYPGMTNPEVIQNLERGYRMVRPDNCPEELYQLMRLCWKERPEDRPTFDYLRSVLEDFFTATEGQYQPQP
In the case of `CC(=O)Nc1cc(-c2c(-c3ccc(F)cc3)nc(S/C=C\C(=O)O)n2CC2CCCO2)ccn1` (racemic), the inhibition is reported as < 50%.

These molecules were tested against Mitogen-activated protein kinase 10 (Homo sapiens, UniProt P53779) (assay: Inhibition of MAPK10 (JNK3) (unknown origin) at 5.5 uM by Caliper Mobility Shift Assay).
Mitogen-activated protein kinase 10, sequence (P53779 whole entry): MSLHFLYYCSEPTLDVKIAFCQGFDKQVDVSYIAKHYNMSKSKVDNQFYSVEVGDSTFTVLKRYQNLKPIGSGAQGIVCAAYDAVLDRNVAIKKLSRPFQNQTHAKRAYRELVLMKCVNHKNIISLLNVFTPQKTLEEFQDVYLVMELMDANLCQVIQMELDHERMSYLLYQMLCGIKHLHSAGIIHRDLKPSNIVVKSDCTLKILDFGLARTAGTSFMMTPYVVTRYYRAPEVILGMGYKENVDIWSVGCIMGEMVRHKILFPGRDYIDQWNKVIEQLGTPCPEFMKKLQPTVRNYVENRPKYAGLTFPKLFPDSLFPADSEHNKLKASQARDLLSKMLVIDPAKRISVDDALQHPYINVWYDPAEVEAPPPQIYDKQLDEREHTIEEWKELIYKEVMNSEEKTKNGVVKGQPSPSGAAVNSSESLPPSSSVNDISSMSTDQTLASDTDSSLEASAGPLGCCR
With `CC(=O)Nc1cc(-c2c(-c3ccc(F)cc3)nc(S/C=C\C(=O)O)n2CC2CCCO2)ccn1` (racemic) the inhibition was < 50%.

These molecules were tested against Platelet-derived growth factor receptor alpha (Homo sapiens) (UniProt P16234) (assay: Inhibition of PDGFRa (unknown origin) at 5.5 uM by Caliper Mobility Shift Assay).
In the case of `CC(=O)Nc1cc(-c2c(-c3ccc(F)cc3)nc(S/C=C\C(=O)O)n2CC2CCCO2)ccn1` (racemic), the inhibition is reported as < 50%.

The molecules below were run against Tyrosine-protein kinase JAK1 (Homo sapiens) (UniProt P23458) (assay: Inhibition of JAK1 (unknown origin) at 5.5 uM by Caliper Mobility Shift Assay).
For `CC(=O)Nc1cc(-c2c(-c3ccc(F)cc3)nc(S/C=C\C(=O)O)n2CC2CCCO2)ccn1` (racemic), the inhibition was < 50%.

Each molecule was assayed against RAC-alpha serine/threonine-protein kinase (Homo sapiens) (UniProt P31749) (assay: Inhibition of AKT1 (PKBa) (unknown origin) at 5.5 uM by Caliper Mobility Shift Assay).
With `CC(=O)Nc1cc(-c2c(-c3ccc(F)cc3)nc(S/C=C\C(=O)O)n2CC2CCCO2)ccn1` (racemic) the inhibition was < 50%.

These molecules were tested against T2, Serine/threonine-protein kinase 17B (Homo sapiens) (UniProt O94768) (assay: Inhibition of STK17B (unknown origin) at 5.5 uM by Caliper Mobility Shift Assay).
T2 sequence (whole entry): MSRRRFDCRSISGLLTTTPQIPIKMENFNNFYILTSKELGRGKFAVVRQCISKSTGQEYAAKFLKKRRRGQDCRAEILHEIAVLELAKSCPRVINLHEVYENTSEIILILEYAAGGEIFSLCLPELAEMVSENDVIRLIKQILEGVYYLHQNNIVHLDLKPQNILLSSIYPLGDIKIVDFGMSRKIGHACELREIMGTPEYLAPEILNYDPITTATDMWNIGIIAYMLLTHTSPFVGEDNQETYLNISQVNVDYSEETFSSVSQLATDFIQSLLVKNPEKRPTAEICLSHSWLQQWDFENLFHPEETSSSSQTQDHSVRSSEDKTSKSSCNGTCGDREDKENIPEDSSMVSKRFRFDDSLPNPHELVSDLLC
For `CC(=O)Nc1cc(-c2c(-c3ccc(F)cc3)nc(S/C=C\C(=O)O)n2CC2CCCO2)ccn1` (racemic), the inhibition was < 50%.

These molecules were tested against Cyclin-dependent kinase 2 (Homo sapiens) (UniProt P24941) (assay: Inhibition of CDK2 (unknown origin) at 5.5 uM by Caliper Mobility Shift Assay).
With `CC(=O)Nc1cc(-c2c(-c3ccc(F)cc3)nc(S/C=C\C(=O)O)n2CC2CCCO2)ccn1` (racemic) the inhibition was < 50%.

Each molecule was assayed against Fibroblast growth factor receptor 4 (Homo sapiens) (UniProt P22455) (assay: Inhibition of FGFR4 (unknown origin) at 5.5 uM by Caliper Mobility Shift Assay).
In the case of `CC(=O)Nc1cc(-c2c(-c3ccc(F)cc3)nc(S/C=C\C(=O)O)n2CC2CCCO2)ccn1` (racemic), the inhibition is reported as < 50%.

These molecules were tested against Mitogen-activated protein kinase kinase kinase kinase 4 (Homo sapiens) (UniProt O95819) (assay: Inhibition of MAP4K4 (unknown origin) at 5.5 uM by Caliper Mobility Shift Assay).
Mitogen-activated protein kinase kinase kinase kinase 4 (Homo sapiens), sequence (O95819 2-1239 limits assumed): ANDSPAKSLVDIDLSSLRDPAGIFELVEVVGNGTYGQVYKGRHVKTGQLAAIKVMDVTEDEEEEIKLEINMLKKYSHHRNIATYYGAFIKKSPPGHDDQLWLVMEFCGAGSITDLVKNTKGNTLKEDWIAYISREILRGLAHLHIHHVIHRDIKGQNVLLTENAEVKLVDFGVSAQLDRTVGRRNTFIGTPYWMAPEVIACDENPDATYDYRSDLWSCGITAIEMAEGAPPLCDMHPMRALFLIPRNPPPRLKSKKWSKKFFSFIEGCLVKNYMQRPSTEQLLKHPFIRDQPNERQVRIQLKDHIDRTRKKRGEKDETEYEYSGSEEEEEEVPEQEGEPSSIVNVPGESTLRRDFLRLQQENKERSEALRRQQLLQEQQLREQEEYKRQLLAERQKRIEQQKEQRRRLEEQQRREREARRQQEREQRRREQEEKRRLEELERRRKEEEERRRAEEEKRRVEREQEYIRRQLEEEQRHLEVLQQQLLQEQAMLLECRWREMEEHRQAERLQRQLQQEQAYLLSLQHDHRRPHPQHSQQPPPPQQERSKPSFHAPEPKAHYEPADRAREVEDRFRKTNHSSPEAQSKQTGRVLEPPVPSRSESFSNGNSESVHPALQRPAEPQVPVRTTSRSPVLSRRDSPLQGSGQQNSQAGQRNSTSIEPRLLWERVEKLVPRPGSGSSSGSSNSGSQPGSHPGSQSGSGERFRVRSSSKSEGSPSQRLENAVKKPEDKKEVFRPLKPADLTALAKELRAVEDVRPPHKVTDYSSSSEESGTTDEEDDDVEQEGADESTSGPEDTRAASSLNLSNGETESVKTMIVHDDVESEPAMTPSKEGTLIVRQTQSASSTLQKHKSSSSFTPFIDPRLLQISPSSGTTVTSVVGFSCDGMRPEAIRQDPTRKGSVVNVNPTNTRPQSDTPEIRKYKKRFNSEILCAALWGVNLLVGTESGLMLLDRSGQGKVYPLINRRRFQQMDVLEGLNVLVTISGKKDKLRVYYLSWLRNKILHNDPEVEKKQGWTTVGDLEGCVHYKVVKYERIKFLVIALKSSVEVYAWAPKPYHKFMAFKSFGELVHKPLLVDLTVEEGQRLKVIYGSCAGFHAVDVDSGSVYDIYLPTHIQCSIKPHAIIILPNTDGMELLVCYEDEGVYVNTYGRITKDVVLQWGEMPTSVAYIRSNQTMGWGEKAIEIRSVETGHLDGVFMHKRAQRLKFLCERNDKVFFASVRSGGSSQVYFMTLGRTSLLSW
`CC(=O)Nc1cc(-c2c(-c3ccc(F)cc3)nc(S/C=C\C(=O)O)n2CC2CCCO2)ccn1` (racemic) was tested, and the inhibition was < 50%.

Species on record: Homo sapiens
Test: Inhibition of CDK1B (unknown origin) at 5.5 uM by Caliper Mobility Shift Assay
In the case of `CC(=O)Nc1cc(-c2c(-c3ccc(F)cc3)nc(S/C=C\C(=O)O)n2CC2CCCO2)ccn1` (racemic), the inhibition is reported as < 50%.

What follows are molecules tested against Proto-oncogene tyrosine-protein kinase receptor Ret (Homo sapiens) (UniProt P07949) (assay: Inhibition of RET (unknown origin) at 5.5 uM by Caliper Mobility Shift Assay).
Proto-oncogene tyrosine-protein kinase receptor Ret (Homo sapiens), sequence (P07949 whole entry): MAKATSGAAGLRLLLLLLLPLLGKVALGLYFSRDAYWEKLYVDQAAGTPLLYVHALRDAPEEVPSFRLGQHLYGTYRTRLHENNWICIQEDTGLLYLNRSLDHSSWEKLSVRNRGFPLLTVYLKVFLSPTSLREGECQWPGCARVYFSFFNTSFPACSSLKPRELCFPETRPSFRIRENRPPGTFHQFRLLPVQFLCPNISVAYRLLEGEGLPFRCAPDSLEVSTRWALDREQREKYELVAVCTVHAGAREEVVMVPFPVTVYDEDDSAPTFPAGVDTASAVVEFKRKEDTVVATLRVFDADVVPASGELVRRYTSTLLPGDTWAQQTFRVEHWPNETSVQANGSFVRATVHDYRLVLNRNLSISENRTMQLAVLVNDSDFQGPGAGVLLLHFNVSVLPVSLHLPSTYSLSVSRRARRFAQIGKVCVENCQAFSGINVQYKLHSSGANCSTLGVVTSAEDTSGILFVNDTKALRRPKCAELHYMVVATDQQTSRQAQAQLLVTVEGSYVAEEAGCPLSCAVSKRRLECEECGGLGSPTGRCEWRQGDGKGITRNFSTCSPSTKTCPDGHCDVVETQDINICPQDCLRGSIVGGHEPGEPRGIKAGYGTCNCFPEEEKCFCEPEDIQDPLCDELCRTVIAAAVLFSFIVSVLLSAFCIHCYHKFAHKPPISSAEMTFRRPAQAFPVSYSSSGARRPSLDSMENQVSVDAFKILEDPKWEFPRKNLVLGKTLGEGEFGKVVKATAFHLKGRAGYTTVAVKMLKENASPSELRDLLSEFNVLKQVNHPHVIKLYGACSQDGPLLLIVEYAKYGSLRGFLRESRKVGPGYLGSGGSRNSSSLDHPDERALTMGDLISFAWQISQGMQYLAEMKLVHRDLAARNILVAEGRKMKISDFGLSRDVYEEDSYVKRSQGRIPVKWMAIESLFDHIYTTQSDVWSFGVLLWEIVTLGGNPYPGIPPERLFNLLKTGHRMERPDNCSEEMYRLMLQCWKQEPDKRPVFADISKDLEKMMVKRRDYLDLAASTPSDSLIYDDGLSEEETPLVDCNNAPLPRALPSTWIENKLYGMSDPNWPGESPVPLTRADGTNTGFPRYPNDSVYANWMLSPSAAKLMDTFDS
In the case of `CC(=O)Nc1cc(-c2c(-c3ccc(F)cc3)nc(S/C=C\C(=O)O)n2CC2CCCO2)ccn1` (racemic), the inhibition is reported as < 50%.

These molecules were tested against T3, Tyrosine-protein kinase ZAP-70 (Homo sapiens) (UniProt P43403) (assay: Inhibition of ZAP70 (unknown origin) at 5.5 uM by Caliper Mobility Shift Assay).
T3 sequence (whole entry): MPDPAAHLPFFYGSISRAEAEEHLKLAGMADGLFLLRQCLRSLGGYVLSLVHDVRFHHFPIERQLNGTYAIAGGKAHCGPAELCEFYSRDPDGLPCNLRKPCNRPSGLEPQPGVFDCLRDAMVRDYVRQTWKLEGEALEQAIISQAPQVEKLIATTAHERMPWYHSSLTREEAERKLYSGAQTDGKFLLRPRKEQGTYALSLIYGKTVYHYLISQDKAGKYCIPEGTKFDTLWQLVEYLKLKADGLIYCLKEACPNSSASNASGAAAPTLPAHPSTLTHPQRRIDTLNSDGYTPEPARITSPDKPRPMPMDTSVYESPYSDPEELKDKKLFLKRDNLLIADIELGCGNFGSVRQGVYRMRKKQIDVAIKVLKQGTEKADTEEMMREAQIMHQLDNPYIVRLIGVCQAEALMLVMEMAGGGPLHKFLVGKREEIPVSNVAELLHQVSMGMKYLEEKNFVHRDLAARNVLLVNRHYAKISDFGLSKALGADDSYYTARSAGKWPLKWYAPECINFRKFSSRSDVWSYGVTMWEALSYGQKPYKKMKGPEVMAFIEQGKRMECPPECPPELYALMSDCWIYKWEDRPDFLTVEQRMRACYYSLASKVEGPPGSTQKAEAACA
In the case of `CC(=O)Nc1cc(-c2c(-c3ccc(F)cc3)nc(S/C=C\C(=O)O)n2CC2CCCO2)ccn1` (racemic), the inhibition is reported as < 50%.

These molecules were tested on Fibroblast growth factor receptor 3 (Homo sapiens), P22607 [K650E] (assay: Inhibition of FGFR3 K650E (unknown origin) at 5.5 uM by Caliper Mobility Shift Assay).
With `CC(=O)Nc1cc(-c2c(-c3ccc(F)cc3)nc(S/C=C\C(=O)O)n2CC2CCCO2)ccn1` (racemic) the inhibition was < 50%.

These molecules were tested against Protein kinase C alpha type (Homo sapiens) (UniProt P17252) (assay: Inhibition of PRKCA (unknown origin) at 5.5 uM by Caliper Mobility Shift Assay).
For `CC(=O)Nc1cc(-c2c(-c3ccc(F)cc3)nc(S/C=C\C(=O)O)n2CC2CCCO2)ccn1` (racemic), the inhibition was < 50%.

Reference: ChEMBL document CHEMBL3393036, “Tetra-substituted pyridinylimidazoles as dual inhibitors of p38α mitogen-activated protein kinase and c-Jun N-terminal kinase 3 for potential treatment of neurodegenerative diseases” (J Med Chem, 2015)
